Results: US7625841B2, “Substituted thiene-3-ylsulphonylamino(thio)carbonyltriazolin(ethi)ones” (Bayer CropScience AG, priority 2001, dated 2009)

Columns and labels:
Assay type in all cases: in vivo
Lolium [1] = experiment: Post-emergence test/greenhouse; settings: greenhouse, application rate 15 gai/ha, rated after three weeks, 0%=no effect, 100%=total destruction
Method: (§1) • Solvent: 5 parts by weight of acetone • Emulsifier: 1 part by weight of alkylaryl polyglycol ether
(§2) To produce a suitable preparation of active compound, 1 part by weight of active compound is mixed with the stated amount of solvent, the stated amount of emulsifier is added and the concentrate is diluted with water to the desired concentration.
(§3) Test plants of a height of 5-15 cm are sprayed with the preparation of active compound such that the particular amounts of active compound desired are applied per unit area. The concentration of the spray liquor is chosen such that the particular amounts of active compound desired are applied in 1000 l of water/ha.
(§4) After three weeks, the degree of damage to the plants is rated in % damage in comparison to the development of the untreated control.
(§5) The figures denote: • 0%=no effect (like untreated control) • 100%=total destruction

Alopecurus [2] = experiment: Post-emergence test/greenhouse; settings: greenhouse, application rate 15 gai/ha, rated after three weeks, 0%=no effect, 100%=total destruction
Method: as §1, §2, §3, §4, §5

Setaria [3] = experiment: Post-emergence test/greenhouse; settings: greenhouse, application rate 15 gai/ha, rated after three weeks, 0%=no effect, 100%=total destruction
Method: as §1, §2, §3, §4, §5

Digitaria = experiment: Post-emergence test/greenhouse; settings: greenhouse, application rate 15 gai/ha, rated after three weeks, 0%=no effect, 100%=total destruction
Method: as §1, §2, §3, §4, §5

maize [4] = experiment: Post-emergence test/greenhouse; settings: greenhouse, application rate 15 gai/ha, rated after three weeks, 0%=no effect, 100%=total destruction
Method: as §1, §2, §3, §4, §5

Bromus [5] = experiment: Post-emergence test/greenhouse; settings: greenhouse, application rate 15 gai/ha, rated after three weeks, 0%=no effect, 100%=total destruction
Method: as §1, §2, §3, §4, §5

Avena fatua [6] = experiment: Post-emergence test/greenhouse; settings: greenhouse, application rate 15 gai/ha, rated after three weeks, 0%=no effect, 100%=total destruction
Method: as §1, §2, §3, §4, §5

Echinochloa = experiment: Post-emergence test/greenhouse; settings: greenhouse, application rate 15 gai/ha, rated after three weeks, 0%=no effect, 100%=total destruction
Method: as §1, §2, §3, §4, §5

weeds [7] = experiment: Post-emergence test, summary for weeds
Method: as §1, §2, §3, §4, §5

weeds [8] = experiment: Pre-emergence test, summary for weeds
Method: as §1
(§6) To produce a suitable preparation of active compound, 1 part by weight of active compound is mixed with the stated amount of solvent, the stated amount of emulsifier is added and the concetrate is diluted with water to the desired concentration.
(§7) Seeds of the test plants are sown in normal soil. After 24 hours, the soil is sprayed with the preparation of active compound such that the particular amount of active compound desired is applied per unit area. The concentration of active compound in the spray liquor is chosen such that the particular amount of active compound desired is applied in 1000 litres of water per hectare.
(§8) After three weeks, the degree of damage to the plants is rated in % damage in comparison to the development of the untreated control. The figures denote: • 0%=no effect (like untreated control) • 100%=total destruction

[9] = system: crop plants, such as, for example, maize, soyabean and wheat; experiment: Pre-emergence test, summary for crop plants
Method: as §1, §6, §7, §8

[10] = system: crop plants such as, for example, maize, oilseed rape and wheat; experiment: Post-emergence test, summary for crop plants
Method: as §1, §2, §3, §4, §5

Alopecurus [11] = experiment: Pre-emergence test/greenhouse; settings: greenhouse, application rate 15 gai/ha, rated after three weeks, 0%=no effect, 100%=total destruction
Method: as §1, §6, §7, §8

Setaria [12] = experiment: Pre-emergence test/greenhouse; settings: greenhouse, application rate 15 gai/ha, rated after three weeks, 0%=no effect, 100%=total destruction
Method: as §1, §6, §7, §8

Matricaria = experiment: Pre-emergence test/greenhouse; settings: greenhouse, application rate 15 gai/ha, rated after three weeks, 0%=no effect, 100%=total destruction
Method: as §1, §6, §7, §8

soybeans = experiment: Pre-emergence test/greenhouse; settings: greenhouse, application rate 15 gai/ha, rated after three weeks, 0%=no effect, 100%=total destruction
Method: as §1, §6, §7, §8

maize [13] = experiment: Pre-emergence test/greenhouse; settings: greenhouse, application rate 15 gai/ha, rated after three weeks, 0%=no effect, 100%=total destruction
Method: as §1, §6, §7, §8

wheat [14] = experiment: Pre-emergence test/greenhouse; settings: greenhouse, application rate 15 gai/ha, rated after three weeks, 0%=no effect, 100%=total destruction
Method: as §1, §6, §7, §8

Amaranthus = experiment: Pre-emergence test/greenhouse; settings: greenhouse, application rate 15 gai/ha, rated after three weeks, 0%=no effect, 100%=total destruction
Method: as §1, §6, §7, §8

Stellaria = experiment: Pre-emergence test/greenhouse; settings: greenhouse, application rate 15 gai/ha, rated after three weeks, 0%=no effect, 100%=total destruction
Method: as §1, §6, §7, §8

Viola = experiment: Post-emergence test/greenhouse; settings: greenhouse, application rate 15 gai/ha, rated after three weeks, 0%=no effect, 100%=total destruction
Method: as §1, §2, §3, §4, §5

wheat [15] = experiment: Post-emergence test/greenhouse; settings: greenhouse, application rate 15 gai/ha, rated after three weeks, 0%=no effect, 100%=total destruction
Method: as §1, §2, §3, §4, §5

Lolium [16] = experiment: Pre-emergence test/greenhouse; settings: greenhouse, application rate 15 gai/ha, rated after three weeks, 0%=no effect, 100%=total destruction
Method: as §1, §6, §7, §8

Solanum = experiment: Pre-emergence test/greenhouse; settings: greenhouse, application rate 15 gai/ha, rated after three weeks, 0%=no effect, 100%=total destruction
Method: as §1, §6, §7, §8

Polygonum = experiment: Pre-emergence test/greenhouse; settings: greenhouse, application rate 15 gai/ha, rated after three weeks, 0%=no effect, 100%=total destruction
Method: as §1, §6, §7, §8

Bromus [17] = experiment: Pre-emergence test/greenhouse; settings: greenhouse, application rate 15 gai/ha, rated after three weeks, 0%=no effect, 100%=total destruction
Method: as §1, §6, §7, §8

Xanthium = experiment: Post-emergence test/greenhouse; settings: greenhouse, application rate 15 gai/ha, rated after three weeks, 0%=no effect, 100%=total destruction
Method: as §1, §2, §3, §4, §5

Avena fatua [18] = experiment: Pre-emergence test/greenhouse; settings: greenhouse, application rate 15 gai/ha, rated after three weeks, 0%=no effect, 100%=total destruction
Method: as §1, §6, §7, §8

COCc1nn(C(=O)NS(=O)(=O)c2c(C(=O)OC)csc2C)c(=O)n1C [Example 18]
degree of damage to the plants, Lolium (Lolium [1]): 95% | degree of damage to the plants, Alopecurus (Alopecurus [2]): 95% | degree of damage to the plants, Setaria (Setaria [3]): 100% | degree of damage to the plants, Digitaria (Digitaria): 95% | degree of damage to the plants, maize (maize [4]): 0% | degree of damage to the plants, Bromus (Bromus [5]): 80% | degree of damage to the plants, Avena fatua (Avena fatua [6]): 95% | degree of damage to the plants, Echinochloa (Echinochloa): 95% | activity against weeds compared with the known compounds (A) and (B) (weeds [7]): considerably stronger activity against weeds | activity against weeds compared with the known compounds (A) to (G) (weeds [8]): considerably stronger activity against weeds | tolerance by crop plants [9]: tolerated well by crop plants | compatibility with crop plants compared with the known compounds (A) and (B) [10]: substantially better compatibility with crop plants | degree of damage to the plants, Alopecurus (Alopecurus [11]): 95% | degree of damage to the plants, Setaria (Setaria [12]): 95% | degree of damage to the plants, Matricaria (Matricaria): 100% | degree of damage to the plants, soybeans (soybeans): 0% | degree of damage to the plants, maize (maize [13]): 0% | degree of damage to the plants, wheat (wheat [14]): 0% | degree of damage to the plants, Amaranthus (Amaranthus): 95% | degree of damage to the plants, Stellaria (Stellaria): 95%

CCSc1nn(C(=O)NS(=O)(=O)c2c(C(=O)OC)csc2C)c(=O)n1C [Example 20]
degree of damage to the plants, Alopecurus (Alopecurus [2]): 90% | degree of damage to the plants, Viola (Viola): 100% | degree of damage to the plants, Bromus (Bromus [5]): 80% | degree of damage to the plants, wheat (wheat [15]): 0% | degree of damage to the plants, Echinochloa (Echinochloa): 100% | activity against weeds compared with the known compounds (A) and (B) (weeds [7]): considerably stronger activity against weeds | activity against weeds compared with the known compounds (A) to (G) (weeds [8]): considerably stronger activity against weeds | tolerance by crop plants [9]: tolerated well by crop plants | compatibility with crop plants compared with the known compounds (A) and (B) [10]: substantially better compatibility with crop plants | degree of damage to the plants, Lolium (Lolium [16]): 95% | degree of damage to the plants, Alopecurus (Alopecurus [11]): 90% | degree of damage to the plants, Matricaria (Matricaria): 100% | degree of damage to the plants, soybeans (soybeans): 0% | degree of damage to the plants, maize (maize [13]): 0% | degree of damage to the plants, wheat (wheat [14]): 0% | degree of damage to the plants, Amaranthus (Amaranthus): 95% | degree of damage to the plants, Solanum (Solanum): 100% | degree of damage to the plants, Stellaria (Stellaria): 100%

COC(=O)c1csc(C)c1S(=O)(=O)NC(=O)n1nc(C2CC2)n(C)c1=O [Example 22]
degree of damage to the plants, Alopecurus (Alopecurus [2]): 99% | degree of damage to the plants, Setaria (Setaria [3]): 90% | degree of damage to the plants, Digitaria (Digitaria): 95% | degree of damage to the plants, maize (maize [4]): 0% | degree of damage to the plants, Bromus (Bromus [5]): 95% | degree of damage to the plants, wheat (wheat [15]): 0% | degree of damage to the plants, Avena fatua (Avena fatua [6]): 80% | activity against weeds compared with the known compounds (A) and (B) (weeds [7]): considerably stronger activity against weeds | activity against weeds compared with the known compounds (A) to (G) (weeds [8]): considerably stronger activity against weeds | tolerance by crop plants [9]: tolerated well by crop plants | compatibility with crop plants compared with the known compounds (A) and (B) [10]: substantially better compatibility with crop plants | degree of damage to the plants, Lolium (Lolium [16]): 95% | degree of damage to the plants, Alopecurus (Alopecurus [11]): 95% | degree of damage to the plants, Polygonum (Polygonum): 95% | degree of damage to the plants, maize (maize [13]): 0% | degree of damage to the plants, Bromus (Bromus [17]): 100% | degree of damage to the plants, wheat (wheat [14]): 0% | degree of damage to the plants, Solanum (Solanum): 100% | degree of damage to the plants, Stellaria (Stellaria): 100%

CCc1nn(C(=O)NS(=O)(=O)c2c(C(=O)OC)csc2C)c(=O)n1C1CC1 [Example 47]
degree of damage to the plants, Lolium (Lolium [1]): 100% | degree of damage to the plants, Xanthium (Xanthium): 80% | degree of damage to the plants, Setaria (Setaria [3]): 90% | degree of damage to the plants, Digitaria (Digitaria): 90% | degree of damage to the plants, Viola (Viola): 100% | degree of damage to the plants, Bromus (Bromus [5]): 80% | degree of damage to the plants, Avena fatua (Avena fatua [6]): 95% | degree of damage to the plants, Echinochloa (Echinochloa): 95% | activity against weeds compared with the known compounds (A) and (B) (weeds [7]): considerably stronger activity against weeds | activity against weeds compared with the known compounds (A) to (G) (weeds [8]): considerably stronger activity against weeds | tolerance by crop plants [9]: tolerated well by crop plants | compatibility with crop plants compared with the known compounds (A) and (B) [10]: substantially better compatibility with crop plants | degree of damage to the plants, Lolium (Lolium [16]): 80% | degree of damage to the plants, Setaria (Setaria [12]): 95% | degree of damage to the plants, Matricaria (Matricaria): 100% | degree of damage to the plants, Polygonum (Polygonum): 90% | degree of damage to the plants, Amaranthus (Amaranthus): 100% | degree of damage to the plants, Avena fatua (Avena fatua [18]): 95% | degree of damage to the plants, Stellaria (Stellaria): 100%

CCCc1nn(C(=O)NS(=O)(=O)c2c(C(=O)OC)csc2C)c(=O)n1C1CC1 [Example 48]
degree of damage to the plants, Lolium (Lolium [1]): 100% | degree of damage to the plants, Xanthium (Xanthium): 90% | degree of damage to the plants, Setaria (Setaria [3]): 80% | degree of damage to the plants, Digitaria (Digitaria): 90% | degree of damage to the plants, Viola (Viola): 95% | degree of damage to the plants, Avena fatua (Avena fatua [6]): 90% | degree of damage to the plants, Echinochloa (Echinochloa): 95% | activity against weeds compared with the known compounds (A) and (B) (weeds [7]): considerably stronger activity against weeds | activity against weeds compared with the known compounds (A) to (G) (weeds [8]): considerably stronger activity against weeds | tolerance by crop plants [9]: tolerated well by crop plants | compatibility with crop plants compared with the known compounds (A) and (B) [10]: substantially better compatibility with crop plants | degree of damage to the plants, Lolium (Lolium [16]): 95% | degree of damage to the plants, Matricaria (Matricaria): 95% | degree of damage to the plants, Polygonum (Polygonum): 95% | degree of damage to the plants, Amaranthus (Amaranthus): 100% | degree of damage to the plants, Avena fatua (Avena fatua [18]): 95% | degree of damage to the plants, Stellaria (Stellaria): 100%
